Measured values taken from ChEMBL document CHEMBL3832761, “MMV Pathogen Box Bioactivity Data” (2017).
Active and inactive are the calls of the source. The rule behind the calls is not given here.

Tests used:
[1] = tested on: Trypanosoma cruzi; experiment: AntiTrypanosoma cruzi activity IC50 (uM); type: functional, organism-based
[2] = tested on: Trypanosoma brucei; experiment: AntiTrypanosoma brucei activity T. b. brucei IC50 (uM); type: functional, organism-based
[3] = tested on: Trypanosoma brucei; experiment: AntiTrypanosoma brucei activity T. b. rhodesiense IC50 (uM); type: functional, organism-based
[4] = tested on: Leishmania major; experiment: AntiLeishmania activity L. major IC50 (uM); type: functional, organism-based
[5] = tested on: Leishmania infantum; experiment: AntiLeishmania activity L. infantum (macrophages) IC50 (uM); type: functional, organism-based
[6] = tested on: Leishmania donovani; experiment: AntiLeishmania activity L. donovani (axenic) IC50 (uM); type: functional, organism-based
[7] = tested on: Leishmania donovani; experiment: AntiLeishmania activity L. donovani (macrophages) IC50 (uM); type: functional, organism-based
[8] = tested on: Leishmania; experiment: AntiLeishmania activity Toxicity on infected PMM (uM); type: functional
[9] = tested on: HepG2; experiment: Cytotoxicity data HepG2 CC20 (uM); type: functional
[10] = tested on: L6; experiment: L6 CC50 (uM) Cytotoxicity; type: functional; conditions: Rattus norvegicus
[11] = tested on: MRC5; experiment: MRC5 CC50 (uM) Cytotoxicity; type: functional; conditions: Homo sapiens
[12] = PMM CC50 (uM) Cytotoxicity; type: functional; conditions: Macrophage
[13] = tested on: Schistosoma mansoni; experiment: AntiSchistosoma mansoni activity Larva IC50 (uM); type: functional, organism-based
[14] = tested on: Schistosoma mansoni; experiment: AntiSchistosoma mansoni activity Juveniles IC50 (uM); type: functional, organism-based
[15] = tested on: Schistosoma mansoni; experiment: AntiSchistosoma mansoni activity Adults IC50 (uM); type: functional, organism-based
[16] = tested on: Schistosoma mansoni; experiment: AntiSchistosoma mansoni activity Newly Transformed Schistosomula: inhibition at 10 uM at 72h (%); type: functional
[17] = tested on: Schistosoma mansoni; experiment: AntiSchistosoma mansoni activity Newly Transformed Schistosomula: IC50 at 72h (uM); type: functional, organism-based
[18] = tested on: Schistosoma mansoni; experiment: AntiSchistosoma mansoni activity Adults: Effect at 10 uM after 48h; type: functional, organism-based
[19] = tested on: Toxoplasma gondii; experiment: AntiToxoplasma gondii activity data Inhibition of plaque forming efficiency (%) Experiment A; type: functional; set-up: concentration or dose not given beside the values
[20] = tested on: Toxoplasma gondii; experiment: AntiToxoplasma gondii activity data Inhibition of plaque forming efficiency (%) Experiment B; type: functional; set-up: concentration or dose not given beside the values
[21] = tested on: Toxoplasma gondii; experiment: AntiToxoplasma gondii activity data 2-day killing assay: inhibition at 10 uM (%) Experiment C; type: functional; conditions: 48 h
[22] = tested on: Toxoplasma gondii; experiment: AntiToxoplasma gondii activity data 2-day killing assay: inhibition at 10 uM (%) Experiment D; type: functional
[23] = tested on: Toxoplasma gondii; experiment: AntiToxoplasma gondii activity data 2-day killing assay: inhibition at 10 uM (%) Experiment E; type: functional
[24] = tested on: Toxoplasma gondii; experiment: AntiToxoplasma gondii activity data 2-day killing assay: IC50 (uM), Experiment F; type: functional, organism-based
[25] = tested on: Toxoplasma gondii; experiment: AntiToxoplasma gondii activity data 2-day killing assay: IC50 (uM), Experiment G; type: functional, organism-based
[26] = HL60 CC50 (uM) Cytotoxicity; type: functional; conditions: HL-60

CC(C)(C)OC(=O)N1CCN(c2cc(-c3ccc(Oc4ccccc4)cc3)n[nH]2)CC1
IC50 [1]: 9.37 µM | IC50 [2]: 3.89 µM | IC50 [3]: 2.7 µM | IC50 [4]: 13 µM | IC50 [5]: 10.2 µM | IC50 [6]: 1.32 µM | IC50 [7]: > 10 µM | Toxicity on infected macrophages [8]: 20 µM | CC20 [9]: 4.03 µM | CC50 [10]: 4.8 µM | CC50 [11]: > 32 µM | CC50 [12]: 16 µM

Cc1ccccc1C(=O)N1N=C(Nc2ccccc2)SC1(C)C
IC50 [13]: 6.7 µM | IC50 [14]: 5.8 µM | IC50 [15]: 5.3 µM | Inhibition [16]: 0% | CC20 [9]: 8 µM | CC50 [11]: > 50 µM

c1ccc(-c2[nH]c3ccccc3c2C(c2ccccn2)N2CCCC2)cc1 (configuration not stated)
IC50 [13]: 0.5 µM | IC50 [14]: 2.5 µM | IC50 [15]: 3.2 µM | Inhibition [16]: 100% | IC50 [17]: 0.51 µM | CC20 [9]: 1 µM | CC50 [11]: 86 µM

Cn1ncc2c(N3CCOCC3)nc(NCCc3c[nH]c4ccccc34)nc21 [TDR79432]
Inhibition [16]: 88% | IC50 [17]: 0.43 µM | Activity [18]: Active | CC20 [9]: 4.63 µM

Cc1cc2nc(NC(=O)C(C)(C)C)nc(Cl)c2n1Cc1ccc(Cl)cc1
Inhibition [19]: ~85% | Inhibition [20]: ~50% | inhibition at 10 µM [21]: 0% | Inhibition [22]: 63.9% | Inhibition [23]: 0% | IC50 [24]: no inhibition | IC50 [25]: no inhibition | CC50 [26]: > 25 µM

CC(Oc1cccc(Cl)c1)C(=O)Nc1ccc2oc(-c3ccncc3)nc2c1 (configuration not stated)
Inhibition [19]: 100% | Inhibition [20]: 100% | inhibition at 10 µM [21]: 0% | Inhibition [22]: 85.4% | Inhibition [23]: 81.6% | IC50 [24]: no inhibition | IC50 [25]: no inhibition | CC50 [26]: > 25 µM

Cc1nc(-c2ccccn2)nc(N2CCC(Cc3ccccc3)C2)c1Cl (configuration not stated)
IC50 [1]: 0.97 µM | IC50 [2]: 6.61 µM | IC50 [3]: 5.62 µM | IC50 [4]: 8.96 µM | IC50 [5]: 4.03 µM | IC50 [6]: 0.03 µM | IC50 [7]: 4.2 µM | Toxicity on infected macrophages [8]: 16.7 µM | CC20 [9]: 10.2 µM | CC50 [10]: 15.2 µM | CC50 [11]: 15.5 µM | CC50 [12]: 16 µM

COc1ccc(-c2onc(C(F)(F)F)c2-c2ccc(Cl)cc2)c(O)c1
IC50 [13]: 3.36 µM | IC50 [14]: 7.02 µM | IC50 [15]: 5.3 µM | Inhibition [16]: 20% | CC50 [11]: 8.3 µM

COc1ccc(-c2cnc3cnc(-c4cccc(OC(C)C)c4)cn23)cc1
IC50 [13]: 6.7 µM | IC50 [14]: 5.7 µM | IC50 [15]: 4.9 µM | Inhibition [16]: 93% | IC50 [17]: 1.18 µM | Activity [18]: Active | CC20 [9]: 24.3 µM | CC50 [11]: 40.1 µM

COCC(C)NC(=O)CSc1ncnc2sc(-c3ccccc3)cc12 (configuration not stated)
Inhibition [16]: 50% | Activity [18]: inactive | CC20 [9]: >80 µM

CC(C)(C)OC(=O)N1CCC(Cn2nc(-c3cnc4ccccc4c3)c3c(N)ncnc32)CC1
Inhibition [19]: 100% | Inhibition [20]: ~75% | inhibition at 10 µM [21]: 1.88% | Inhibition [22]: 36.1% | Inhibition [23]: 0% | CC50 [26]: > 50 µM

Cc1nn(C(=O)Nc2cccc(C(F)(F)F)c2)c(C)c1Sc1ncccn1
IC50 [14]: 4.05 µM | IC50 [15]: 2 µM | Inhibition [16]: 33.3% | Activity [18]: Active | CC20 [9]: 30.7 µM

COc1ccc(-c2nnc3ccc(-c4cccc(C(C)C)c4)cn23)cc1OC
IC50 [13]: 6.6 µM | IC50 [14]: 4 µM | IC50 [15]: 1.6 µM | Inhibition [16]: 79% | IC50 [17]: 5.69 µM | Activity [18]: Active | CC20 [9]: 7.5 µM | CC50 [11]: 18.6 µM

CS(=O)(=O)c1ccc(C(=O)N(CC2CCCO2)c2nc3ccccc3s2)cc1[N+](=O)[O-] (configuration not stated)
IC50 [13]: 0.29 µM | IC50 [14]: 3.22 µM | IC50 [15]: 4.8 µM | Inhibition [16]: 100% | CC20 [9]: 6.94 µM | CC50 [11]: 6.2 µM

CNc1nnc(Sc2cnn(-c3ccccc3)c(=O)c2Cl)s1
IC50 [14]: 3.7 µM | Inhibition [16]: 100% | IC50 [17]: 0.15 µM | CC20 [9]: 1.55 µM

O=C(CN1CCOCC1)Nc1ccc2ncnc(Nc3ccc(OCc4cccc(F)c4)c(Cl)c3)c2c1
IC50 [1]: 0.95 µM | IC50 [2]: 5.31 µM | IC50 [3]: 3.07 µM | IC50 [4]: 12.4 µM | IC50 [5]: > 32 µM | CC20 [9]: 10.9 µM | CC50 [11]: 6.4 µM | CC50 [12]: > 32 µM

Nc1ccc2ncnc(Nc3ccc(OCc4cccc(F)c4)c(Cl)c3)c2c1
IC50 [1]: 4.03 µM | IC50 [2]: > 32 µM | IC50 [3]: 13.1 µM | IC50 [4]: 10.4 µM | IC50 [5]: > 32 µM | CC20 [9]: 9.72 µM | CC50 [11]: > 32 µM | CC50 [12]: > 32 µM

CC(=O)N1CCN(c2ccc(Oc3ccc(Cl)cc3O)cc2)CC1
Inhibition [19]: ~90% | Inhibition [20]: ~90% | inhibition at 10 µM [21]: 71% | Inhibition [22]: 22.4% | Inhibition [23]: 64.6% | IC50 [24]: no inhibition | IC50 [25]: no inhibition | CC50 [26]: > 50 µM

CS(=O)(=O)N1CCC(CCn2nc(Cc3cccc4ccccc34)c3c(N)ncnc32)CC1
Inhibition [19]: 100% | Inhibition [20]: 100% | inhibition at 10 µM [21]: 0% | Inhibition [22]: 63.9% | Inhibition [23]: 20.6% | IC50 [24]: no inhibition | IC50 [25]: no inhibition | CC50 [26]: > 50 µM

Cc1ncc(-c2ccnc(Nc3ccc(S(C)(=O)=O)cc3)n2)n1C(C)C [AZD-5438]
IC50 [1]: 1.08 µM | IC50 [2]: 0.26 µM | IC50 [3]: < 0.13 µM | IC50 [4]: 3.15 µM | IC50 [5]: 1.15 µM | CC20 [9]: 0.18 µM | CC50 [11]: 1 µM | CC50 [12]: 4 µM

Cc1[nH]c2ccccc2c1C(c1cccs1)N1CCN(C)CC1 (configuration not stated)
IC50 [14]: 3.8 µM | IC50 [15]: 7.2 µM | Inhibition [16]: 100% | IC50 [17]: 0.29 µM | CC20 [9]: 8.46 µM | CC50 [11]: > 20 µM

CC(C(=O)Nc1ccc2oc(-c3ccncc3)nc2c1)c1ccccc1 (configuration not stated)
Inhibition [19]: 100% | Inhibition [20]: ~75% | inhibition at 10 µM [21]: 3.75% | Inhibition [22]: 62.6% | Inhibition [23]: 1.05% | IC50 [24]: no inhibition | IC50 [25]: no inhibition | CC50 [26]: > 50 µM

CN1CCN(S(=O)(=O)c2ccc(-c3ccc4c(Nc5ncc(Cl)cn5)ccnc4c3)cc2)CC1
IC50 [1]: 3.81 µM | IC50 [2]: 3.78 µM | IC50 [3]: 0.96 µM | IC50 [4]: 8.51 µM | IC50 [5]: 2.54 µM | CC20 [9]: 8 µM | CC50 [11]: > 32 µM | CC50 [12]: 4 µM

c1ccc(Oc2ccc(-c3cncc(-c4ccc5[nH]ccc5c4)n3)cc2)cc1
IC50 [13]: 1.4 µM | IC50 [14]: 2.1 µM | IC50 [15]: 3.7 µM | Inhibition [16]: 100% | IC50 [17]: 0.27 µM | Activity [18]: Active | CC20 [9]: 25.7 µM | CC50 [11]: 20 µM
